Laboratory results reported in patent US9962375B2, “Methyl-piperidine compounds useful for inhibiting microsomal prostaglandin E2 synthase-1” (Eli Lilly and Company, priority 2014, dated 2018).

Key:
Human mPGES-1 = biological target: T1, Human mPGES-1 (Homo sapiens, UniProt O14684); experiment: Human mPGES-1 Enzyme Inhibition Assay; assay type: biochemical; conditions: microsomes from 293E cells, 1.67 μM PGH2, PGE2 by LC/MS; ±0.00064, n=17
T1 construct: host or cells: 293E cells (transient expression; microsomes prepared from cell pellets)
T1 sequence (O14684 1-152): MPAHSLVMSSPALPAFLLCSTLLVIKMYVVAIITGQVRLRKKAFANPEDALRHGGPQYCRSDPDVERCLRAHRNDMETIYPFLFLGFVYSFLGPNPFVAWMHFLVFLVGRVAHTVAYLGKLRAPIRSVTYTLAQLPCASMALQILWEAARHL
Procedure: Human mPGES-1 Enzyme Inhibition Assay
Human mPGES-1 (Invitrogen™ (Cat#97002RG, clone ID 6374722)) is subcloned into pcDNA3.1 and transiently expressed in 293E cells. Microsomes are prepared from cell pellets based on published methods (Oullet et al., Purification and characterization of recombinant microsomal prostaglandin E synthase-1, Protein Expression and Purification, 26 pp 489-495 (2002); and Thoren et al., Human Microsomal Prostanglandin E Synthase-1, J. Biol Chem. 278(25) pp 22199-22209 (2003)). Briefly, pellets are brought up in homogenization buffer (15 mM Tris-HCl, pH 8.0; 0.25 M sucrose; 0.1 mM EDTA; 1 mM glutathione) and sonicated 5×30 seconds on ice. Homogenate is centrifuged at 5,000×g for 10 minutes at 4° C. The supernatant fraction is decanted and loaded into Beckman Quick-Seal® tubes and centrifuged at 150,000×g. for 90 minutes at 4° C. The supernatant fraction is discarded by decantation and the pellets are re-suspended in assay buffer (10 mM sodium phosphate, pH 7.0; 10% glycerol; 2.5 mM glutathione; Complete Protease Inhibitor Cocktail (Roche)). Protein concentration is determined using the Pierce Coomassie Plus™ reagent.
For the enzyme assay, the microsomes are diluted into assay buffer and 14 μL/well of the resulting solution is added to 384 well assay plates. […]

[1] = system: PGE2 formation in human epithelial lung carcinoma cell line A549; experiment: Cell Based Assay for Measuring Eicosanoid Selectivity (rhIL-1β induced PGE2 in A549 cells); conditions: 0.1 ng/mL rhIL-1β, approximately 18 hours, EIA, ±0.00301, n=2, read-out: IC50 for inhibition of PGE2 formation
Procedure: Cell Based Assay for Measuring Eicosanoid Selectivity
Human epithelial lung carcinoma cell line A549 is obtained from ATCC (CCL-185) and maintained in Kaighn's F12 cell culture medium+10% fetal bovine serum (FBS) (plating medium) under standard 5% CO2 humidified atmosphere at 37° C. The cells are passaged at 1:3 twice per week.
For the assays, cells are released from flasks by washing once with PBS, then once with Trypsin/EDTA. After 3-5 minutes at 37° C., the cells are suspended in plating medium and centrifuged at 2,000 rpm, 25° C., for 5 minutes. The supernatant is aspirated and the cell pellet is resuspended in F12K plating medium. The cell number is determined by counting an aliquot of cells which has been diluted in PBS and Trypan blue on a hemocytometer. Cells are plated at 40,000/well in 96 well Falcon plates 24 hours prior to treatment. Compounds are diluted in DMSO to 100× of the final concentration in Screen Mates tubes. The medium is removed from the cells and fresh medium (90 μL/well) is added to the cells. The compounds are added at 1 μL/well, n=2, to give seven concentrations each. Cells are pretreated with compounds for 30 minutes at 37° C., 5% CO2. […] After approximately 90-120 minutes at room temperature on an orbital shaker at 100 rpm, the plates are read at A412 on a plate reader. […]

[2] = system: PGE2 formation in human whole blood; experiment: Human Whole Blood Assay (LPS induced PGE2); assay type: cell-based; conditions: 100 μg/mL LPS, 20-24 hours, LC/MS/MS, n=11, read-out: IC50 for inhibition of PGE2 formation in human whole blood
Procedure: Blood is collected from normal volunteer donors into sodium heparin VACUTAINER tubes. Donors are selected, in part, on their confirmation that they have not taken NSAIDs, aspirin, Celebrex®, or glucocorticoids within two weeks of the donation. All tubes/donor are pooled into 250 mL Corning conical centrifuge tubes and 436.5 μL/well is distributed into deep well polypropylene plates. Compounds are diluted in DMSO to 100× final and 4.5 μL/well in duplicate or triplicate is added to give 7 point curves. […] One hundred microliters is quantitatively transferred to Costar cluster tubes blocks and 400 μL/well of the MeOH stop reagent and internal standards, d4-PGE2, d4-PGF2α, and d4-TXA2β are added. […]
Solid phase extraction is performed using Waters HLB 30 mg/bed 96 well plates on a vacuum manifold: Step 1, the matrix is washed with MeOH (1 mL), followed by 0.1% formic acid in water (1 mL); Step 2, 400 μL sample is applied along with 0.1% formic acid in water (900 μL) and allowed to bind for 5 minutes; Step 3, the matrix is washed with 0.1% formic acid in water (600 μL), followed by 80/20 water/MeOH (600 μL); Step 4, the products are eluted with 2-500 μL volumes of EtOAc; Step 5 the samples are dried under nitrogen and reconstituted in 75/25 water/acetonitrile with 0.1% formic acid (50 μL). The products are analyzed by LC/MS/MS.

Cc1cccc2ccc(N3CC[C@H](C(=O)N[C@H]4CCO[C@H](CO)C4)C(C)(C)C3)nc12 [Example 1, (S)-N-((2S,4S)-2-(Hydroxymethyl)tetrahydro-2H-pyran-4-yl)-3,3-dimethyl-1-(8-methylquinolin-2-yl)piperidine-4-carboxamide]
IC50 (Human mPGES-1): 1.93 nM | IC50 [1]: 4.71 nM | IC50 [2]: 2.05 ± 0.82 nM
